Measured values taken from US10682371B2, “Small molecule conjugates specifically activated in tumor microenvironment for targeting and use thereof” (priority 2014, dated 2020).

Tests used:
Human heart = type: biochemical; conditions: Human heart; 1 mg/ml, acidized homogenate pH6.0; Paclitaxel release by HPLC
[1] = Solubility / formulation test in solvent 1 and solvent 2; type: physicochemical
Procedure: In Table 11, AAN, AANL and AANK indicate the linkage formed by small peptides in the compounds, A is Ala, N is Asn, L is Leu and K is Lys. […] The dissolution concentration is 10 mg/ml.
B1, B2, B3 and B4 and various control compounds were dried under vacuum, sterilized via gas sterilization, and separately packing in a sterile room. Before animal test, B1, B2, B3 and B4 were dissolved by solvent 1 (injectable water) or solvent 2 (30% alcohol, 70% injectable water) and diluted by injectable water to the desired concentration in sterile room. […] Change in solubility may greatly affect the formulation scheme of a drug.
D1, D2, D3, D4 and various control compounds were dried under vacuum, sterilized via gas sterilization, and separately packing in a sterile room. […] Change in solubility may greatly affect the formulation scheme of a drug.

[2] = system: Human prostate cancer PC-3 cells / Panc-1 cells; assay: Tumor treatment in nude mice (PC-3 cells purchased, Panc-1 cells injected; Examples 22, 32, 42); type: in vivo
Procedure: (§1) 1) Human prostate cancer PC-3 cells were purchased from American type culture collection (ATCC) and identified according the specification provided by ATCC. Cells were cultivated in DMEM culture solution containing 10% fetal bovine serum at 37° C. and 5% CO2. The cells were passaged for every three days and cells within the 15th passage were used.
(§2) 2) Production of tumor. 5×10^6Panc-1 cells were subcutaneously injected to the back of the nude mice. Mice were randomly grouped after the tumor reached at least 100 mm^3. Then treatment began and the day on which the treatment began was day 1.
The control group was administered by physiological saline. Drugs were administered once weekly for four weeks.
According to the clinical application of B1, B2, B3 and B4, drugs were intravenously injected (IV). […] The control group was administered by physiological saline. Drugs were administered once weekly for four weeks.

4T1 cells = assay: BALB/C mice model for tumor metastasis (4T1, lung metastases); type: in vivo
Procedure: as §1, with “4T1” for “Human prostate cancer PC-3”
2) Production of tumor metastasis. 10^6 […] were subcutaneously injected to the back of the BALB/C mice. Mice were randomly grouped after the tumor grew to about 1.5 cm. The subcutaneous tumor was removed by surgery and drug treatment began. Mice were killed after anesthesia on day 27. The whole lung was taken out and put into Bouin's solution for staining. The number of the tumor metastasized to lung was counted with anatomical microscope.
(§3) The control group was administered by physiological saline. Drugs were administered once for every three days for 4 times.
as §3
According to the clinical application of B1, B2, B3 and B4, drugs were intravenously injected (IV). […] The control group was administered by physiological saline. Drugs were administered once for every three days for 4 times.
According to the clinical application of D1, D2, D3 and D4, drugs were intravenously injected (IV). […] The control group was administered by physiological saline. Drugs were administered once for every three days for 4 times.

BALB/C mice = assay: Maximum tolerated dose (MTD) / acute toxicity by single intravenous injection
Panc-1 cells = assay: Tumor treatment in nude mice, Panc-1 model (Example 60); type: in vivo; conditions: Panc-1 in nude mice, IV once weekly for four weeks, E1-E4 15 mg/kg, mitomycin 2 mg/kg
Procedure: as §1, with “Panc-1” for “Human prostate cancer PC-3”
as §2
[…]. The control group was administered by physiological saline. Drugs were administered once weekly for four weeks.

[3] = Table 26, nude mice, IV once weekly for four weeks, A1-A4 24 mg/kg, Paclitaxel 8 mg/kg, Day 10
[4] = Table 26, nude mice, IV once weekly for four weeks, A1-A4 24 mg/kg, Paclitaxel 8 mg/kg, Day 24
[5] = Table 28, BALB/C mice, 4T1, lung metastases day 27, IV every three days for 4 times, A1-A4 12 mg/kg, Paclitaxel 4 mg/kg
[6] = single intravenous injection, 125 mg/kg, 10 BALB/C mice per group
[7] = single intravenous injection, 150 mg/kg, 10 BALB/C mice per group
[8] = single intravenous injection, 175 mg/kg, 10 BALB/C mice per group
[9] = single intravenous injection, 200 mg/kg, 10 BALB/C mice per group

COCCOCCOCCOCCOCCOCC(=O)NCCCC[C@H](NC(=O)COCCOCCOCCOCCOCCOC)C(=O)N[C@H](C)C(=O)N[C@H](C)C(=O)N[C@H](CC(N)=O)C(=O)Nc1ccc(COC(=O)OC(C(=O)OC2C[C@@]3(O)[C@@H](OC(=O)c4ccccc4)[C@H]4[C@](C)(C(=O)[C@H](OC(C)=O)C(=C2C)C3(C)C)[C@@H](O)CC2OC[C@]24OC(C)=O)[C@@H](NC(=O)c2ccccc2)c2ccccc2)cc1 (stereo partly shown) [Compound A2]
Activation ratio (%) in homogenates from different tumor tissues (Human heart): none
solubility in Solvent 1 ([1]; solvent 1 (injectable water), Table 22, Paclitaxel series): soluble
Concentration achieved, completely dissolved in both solvent 1 and solvent 2 ([1]; solvent 1 injectable water, solvent 2 45% alcohol, 55% injectable water): 10000 µg/mL
solubility in Solvent 2 ([1]; solvent 2 (45% alcohol, 55% injectable water), Table 22, Paclitaxel series): soluble
Solubility in water, in words ([1]; water): can directly dissolve in water
Size of tumor (mm^3) Day 10 [2, 3]: 55.19 ± 56.2 mm^3
inhibitory rate on tumor Day 10 [2, 3]: 81.3%
Size of tumor (mm^3) Day 24 [2, 4]: 44.43 ± 47.9 mm^3
inhibitory rate on tumor Day 24 [2, 4]: 88.3%
Inhibition on tumor growth, in words ([2]; compared with parent drug group (same molar concentration) and control group): greatly improved
Inhibitory rate on metastasis (4T1 cells; [5]): 93.9%
Number of metastasized tumor (4T1 cells; [5]): 9 ± 5
Inhibitory effect on tumor metastasis, in words (4T1 cells; compared with parent drug group and control group): greatly improved
Behaviors and death observed (BALB/C mice; BALB/C mice receiving 90 mg/kg injection): no pilo-erection, hair tousle and lackluster, lethargy, stoop, irritable reaction and death
MTD (maximum tolerated dose) (BALB/C mice; BALB/C mice, intravenous injection, one time): about 90 mg/kg
Mortality rate (%) (BALB/C mice; [6]): 10%
Number of dead animal (BALB/C mice; [6]): 2
Mortality rate (%) (BALB/C mice; [7]): 0%
Number of dead animal (BALB/C mice; [7]): 0
Mortality rate (%) (BALB/C mice; [8]): 0%
Number of dead animal (BALB/C mice; [8]): 0
Mortality rate (%) (BALB/C mice; [9]): 0%
Number of dead animal (BALB/C mice; [9]): 0

CO[C@@]12[C@H](COC(N)=O)C3=C(C(=O)C(C)=C(N)C3=O)N1C[C@@H]1N[C@@H]12 [mitomycin, reference compound]
Inhibitory rate on metastasis (4T1 cells; day 27, IV once every three days for 4 times, E1-E4 15 mg/kg, mitomycin 1 mg/kg): 5.9%
Number of metastasized tumor (4T1 cells; lung metastases counted on day 27, IV once every three days for 4 times, E1-E4 15 mg/kg, mitomycin 1 mg/kg): 128 ± 25
Size of tumor (mm^3) Day 10 (Panc-1 cells; Day 10): 118.85 ± 36.47 mm^3
inhibitory rate on tumor Day 10 (Panc-1 cells; Day 10): 7.5%
Size of tumor (mm^3) Day 24 (Panc-1 cells; Day 24): 249.54 ± 95.46 mm^3
inhibitory rate on tumor Day 24 (Panc-1 cells; Day 24): 27.9%
Mortality rate (%) (BALB/C mice; 6 mg/kg single IV injection, 10 BALB/C mice): 0%
Number of dead animal (BALB/C mice; 6 mg/kg single IV injection, 10 BALB/C mice, observed 17 days): 0
Mortality rate (%) (BALB/C mice; 7 mg/kg single IV injection, 10 BALB/C mice): 10%
Number of dead animal (BALB/C mice; 7 mg/kg single IV injection, 10 BALB/C mice, observed 17 days): 1
Mortality rate (%) (BALB/C mice; 8 mg/kg single IV injection, 10 BALB/C mice): 40%
Number of dead animal (BALB/C mice; 8 mg/kg single IV injection, 10 BALB/C mice, observed 17 days): 4
Mortality rate (%) (BALB/C mice; 9 mg/kg single IV injection, 10 BALB/C mice): 90%
Number of dead animal (BALB/C mice; 9 mg/kg single IV injection, 10 BALB/C mice, observed 17 days): 9
